The target of experiment [1] is T1, Human CD73 (amino acid residues 27-549) (Homo sapiens, UniProt P21589).
T1 construct: Human CD73 (amino acid residues 27-549); His tag (N); made in house; host or cells: E. coli
T1 sequence (P21589 27-549): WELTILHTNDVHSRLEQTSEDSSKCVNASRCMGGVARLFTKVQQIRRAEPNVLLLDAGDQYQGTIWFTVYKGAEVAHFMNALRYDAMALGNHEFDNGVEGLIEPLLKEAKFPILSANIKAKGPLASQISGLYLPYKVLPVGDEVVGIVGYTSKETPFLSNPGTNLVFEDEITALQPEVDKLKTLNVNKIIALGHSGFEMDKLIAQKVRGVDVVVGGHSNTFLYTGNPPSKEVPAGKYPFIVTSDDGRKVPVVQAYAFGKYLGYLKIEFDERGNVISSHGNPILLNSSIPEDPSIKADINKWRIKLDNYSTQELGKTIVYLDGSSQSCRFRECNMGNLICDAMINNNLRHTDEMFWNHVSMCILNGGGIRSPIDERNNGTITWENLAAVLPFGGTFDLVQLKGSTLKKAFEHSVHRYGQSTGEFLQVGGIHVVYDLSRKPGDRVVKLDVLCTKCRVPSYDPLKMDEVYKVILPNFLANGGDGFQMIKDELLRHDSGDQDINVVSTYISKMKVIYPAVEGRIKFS
Nature of the experiment: CD73 enzymatic assay (luciferase-based indirect assay, CellTiter-Glo). The experiment is classed as biochemical. To be noted: 0.4 nM CD73, 150 μM AMP, 1 hour at room temperature. Summed up: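 Luciferase-coupled readout: AMP left after CD73 turnover suppresses CellTiter-Glo signal (1 μM ATP final, 30 min RT). Reaction beforehand: 150 μM AMP, 0.4 nM E. coli-made His-tagged CD73 residues 27-549, test compound, HEPES pH 7.4 with Tween-20, 1 h RT. % inhibition fitted nonlinearly for IC50.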
In general terms: In ATP-based viability assays light output follows the ATP content of the culture.

The next experiment deals with T2, human CD73 (Homo sapiens, UniProt P21589).
T2 construct: expressed in transfected cells
T2 sequence (P21589 27-549): T1 sequence (P21589 27-549)
Nature of the experiment: Inhibitor activity against CD73 in cell based assay (CD73 expressing CHO-K1 cells). To be noted: CHO-K1 cells expressing human CD73, 150 μM AMP, 4 hours of incubation; read-out: CHO-K1 CELL_VARIANT: CD73 IC50. Summed up:
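AMP (150 μM) was added alongside 8 titrated compound doses (maximum 10 μM, 1:3 steps) to CHO-K1 cells stably expressing human CD73. After 4 h, supernatant AMP was measured indirectly with CellTiter-Glo 2.0 plus 1 μM ATP (30 min, RT). % inhibition versus high and low controls was fitted nonlinearly for IC50.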

The structures appear in SMILES notation.

The IC50 is the concentration that gives 50% inhibition. As to `Cc1nn(C(C)C)c(C)c1-c1ccnc(O[C@@H]2CCN(c3cn[nH]c(=O)c3Cl)C2)c1` [P-0027, (R)-4-chloro-5-(3-((4-(1-isopropyl-3,5-dimethyl-1H-pyrazol-4-yl)pyridin-2-yl)oxy)pyrrolidin-1-yl)pyridazin-3(2H)-one], the IC50 (in experiment [1]; on human CD73) was 0.001 to 10 µM each time.

Take `N#CC1CCN(c2ccnc(O[C@@H]3CCN(c4cn[nH]c(=O)c4Cl)C3)c2)CC1` [P-0074, (R)-1-(2-((1-(5-chloro-6-oxo-1,6-dihydropyridazin-4-yl)pyrrolidin-3-yl)oxy)pyridin-4-yl)piperidine-4-carbonitrile]: the IC50 (in experiment [1]; on human CD73) was 0.001 to 10 µM in each case.

Regarding `Cc1nn(CCN(C)C)c(C)c1-c1cc(F)nc(O[C@@H]2CCN(c3cn[nH]c(=O)c3Cl)C2)c1` [P-0161, (R)-4-chloro-5-(3-((4-(1-(2-(dimethylamino)ethyl)-3,5-dimethyl-1H-pyrazol-4-yl)-6-fluoropyridin-2-yl)oxy)pyrrolidin-1-yl)pyridazin-3(2H)-one], the IC50 (in experiment [1]; on human CD73) was 0.001 to 10 µM in each case.

Regarding `Cc1noc(C)c1-c1ccnc(O[C@@H]2CCN(c3cn[nH]c(=O)c3C(F)(F)F)C2)c1` [P-0051, (R)-5-(3-((4-(3,5-dimethylisoxazol-4-yl)pyridin-2-yl)oxy)pyrrolidin-1-yl)-4-(trifluoromethyl)pyridazin-3(2H)-one], the half-inhibitory concentration (IC50) (in experiment [1]; on human CD73) was 0.001 to 10 µM throughout.

On to `Cc1noc(C)c1-c1cc(O[C@H]2CN(c3cnn(CCO)c(=O)c3Cl)C[C@@H]2F)ncn1` [P-0145, 4-chloro-5-((3S,4S)-3-((6-(3,5-dimethylisoxazol-4-yl)pyrimidin-4-yl)oxy)-4-fluoropyrrolidin-1-yl)-2-(2-hydroxyethyl)pyridazin-3(2H)-one], for which the IC50 (in experiment [1]; on human CD73) was 0.001 to 10 µM each time.

Turning to `O=c1[nH]ncc(N2CC[C@@H](Oc3cc(N4CC5CCC(C4)N5)ccn3)C2)c1Cl` [P-0013, 5-((3R)-3-((4-(3,8-diazabicyclo[3.2.1]octan-3-yl)pyridin-2-yl)oxy)pyrrolidin-1-yl)-4-chloropyridazin-3(2H)-one], the IC50 (in experiment [1]; at human CD73) was 0.001 to 10 µM in each case.

As for `Cc1nn(CC2COC2)c(C)c1-c1cc(O[C@@H]2CCN(c3cn[nH]c(=O)c3Cl)C2)ncn1` [P-0061, (R)-4-chloro-5-(3-((6-(3,5-dimethyl-1-(oxetan-3-ylmethyl)-1H-pyrazol-4-yl)pyrimidin-4-yl)oxy)pyrrolidin-1-yl)pyridazin-3(2H)-one], the IC50 (in experiment [1]; at human CD73) was 0.001 to 10 µM in each case.

Regarding `COC(=O)C1CC(Cn2nc(C)c(-c3ccnc(O[C@@H]4CCN(c5cn[nH]c(=O)c5Cl)C4)c3)c2C)C1` (stereo partly drawn) [P-0055, methyl (R)-3-((4-(2-((1-(5-chloro-6-oxo-1,6-dihydropyridazin-4-yl)pyrrolidin-3-yl)oxy)pyridin-4-yl)-3,5-dimethyl-1H-pyrazol-1-yl)methyl)cyclobutane-1-carboxylate], the IC50 (in experiment [1]; at human CD73) was 0.001 to 10 µM each time.

As for `O=c1[nH]ncc(N2CC[C@@H](Oc3cc(-c4ccc(S(=O)(=O)Nc5ccc(F)cc5)cc4)ccn3)C2)c1Cl` [P-0241, (R)-4-(2-((1-(5-chloro-6-oxo-1,6-dihydropyridazin-4-yl)pyrrolidin-3-yl)oxy)pyridin-4-yl)-N-(4-fluorophenyl)benzenesulfon-amide], the IC50 (in experiment [1]; on human CD73) was 0.001 to 10 µM each time.

As for `O=c1[nH]ncc(N2CC[C@@H](Oc3ncccc3NC3CCC(F)(F)CC3)C2)c1Cl` [P-0110, (R)-4-chloro-5-(3-((3-((4,4-difluorocyclohexyl)amino)pyridin-2-yl)oxy)pyrrolidin-1-yl)pyridazin-3(2H)-one], the 50% inhibitory concentration (IC50) (in experiment [1]; at human CD73) was 0.001 to 10 µM in each case.

`COc1ccc2c(c1)cc(-c1ccnc(O[C@@H]3CCN(c4cn[nH]c(=O)c4Cl)C3)c1)n2C` [P-0108, (R)-4-chloro-5-(3-((4-(5-methoxy-1-methyl-1H-indol-2-yl)pyridin-2-yl)oxy)pyrrolidin-1-yl)pyridazin-3(2H)-one]: the IC50 (in experiment [1]; at human CD73) was 0.001 to 10 µM throughout.

Turning to `O=c1[nH]ncc(N2CC[C@@H](Oc3cc(-c4ccc(S(=O)(=O)NC5CC5)cc4)c(Cl)cn3)C2)c1Cl` [P-0251, (R)-4-(5-chloro-2-((1-(5-chloro-6-oxo-1,6-dihydropyridazin-4-yl)pyrrolidin-3-yl)oxy)pyridin-4-yl)-N-cyclopropylbenzenesulfonamide], the concentration for half-maximal inhibition (IC50) (in experiment [1]; on human CD73) was 0.001 to 10 µM in each case.

For the compound `N#CC1CCC(c2ccnc(O[C@@H]3CCN(c4cn[nH]c(=O)c4Cl)C3)c2)CC1` (stereo partly drawn) [P-0091, (R)-4-(2-((1-(5-chloro-6-oxo-1,6-dihydropyridazin-4-yl)pyrrolidin-3-yl)oxy)pyridin-4-yl)cyclohexane-1-carbonitrile], the IC50 (in experiment [1]; at human CD73) was 0.001 to 10 µM in each case.

As for `CC1(C)CCCN1c1ccnc(O[C@@H]2CCN(c3cn[nH]c(=O)c3Cl)C2)c1` [P-0079, (R)-4-chloro-5-(3-((4-(2,2-dimethylpyrrolidin-1-yl)pyridin-2-yl)oxy)pyrrolidin-1-yl)pyridazin-3(2H)-one], the IC50 (in experiment [1]; at human CD73) was 0.001 to 10 µM in each case.

Consider `O=c1[nH]ncc(N2CC[C@@H](Oc3cc(C4CCC(O)CC4)ccn3)C2)c1Cl` (stereo partly drawn) [P-0031, (R)-4-chloro-5-(3-((4-(4-hydroxycyclohexyl)pyridin-2-yl)oxy)pyrrolidin-1-yl)pyridazin-3(2H)-one], for which the IC50 (in experiment [1]; on human CD73) was 0.001 to 10 µM in each case.

As for `O=C(C1CC1)N1CCC(c2ccnc(O[C@@H]3CCN(c4cn[nH]c(=O)c4Cl)C3)c2)CC1` [P-0058, (R)-4-chloro-5-(3-((4-(1-(cyclopropanecarbonyl)piperidin-4-yl)pyridin-2-yl)oxy)pyrrolidin-1-yl)pyridazin-3(2H)-one], the IC50 (in experiment [1]; on human CD73) was 0.001 to 10 µM throughout.

For `Cc1nn(CCC(F)(F)F)c(C)c1-c1cc(F)nc(O[C@@H]2CCN(c3cn[nH]c(=O)c3Cl)C2)c1` [P-0166, (R)-4-chloro-5-(3-((4-(3,5-dimethyl-1-(3,3,3-trifluoropropyl)-1H-pyrazol-4-yl)-6-fluoropyridin-2-yl)oxy)pyrrolidin-1-yl)pyridazin-3(2H)-one], the half-maximal inhibitory concentration (IC50) (in experiment [1]; on human CD73) was 0.001 to 10 µM in each case.

In the case of `Cc1nn(C)c(C)c1-c1cc(O[C@H]2CN(c3cn[nH]c(=O)c3Cl)C[C@@H]2F)ncn1` [P-0147, 4-chloro-5-((3S,4S)-3-fluoro-4-((6-(1,3,5-trimethyl-1H-pyrazol-4-yl)pyrimidin-4-yl)oxy)pyrrolidin-1-yl)pyridazin-3(2H)-one], the IC50 (in experiment [1]; at human CD73) was 0.001 to 10 µM each time.

With `Cc1nn(C)c(C)c1-c1cc(F)nc(O[C@@H]2CCN(c3cn[nH]c(=O)c3Cl)C2)c1` [P-0200, (R)-4-chloro-5-(3-((6-fluoro-4-(1,3,5-trimethyl-1H-pyrazol-4-yl)pyridin-2-yl)oxy)pyrrolidin-1-yl)pyridazin-3(2H)-one], the 50% inhibitory concentration (IC50) (in experiment [1]; on human CD73) was 0.001 to 10 µM each time.

Consider `O=c1c(Cl)c(N2CC[C@@H](Oc3cc(N4[C@@H]5CC[C@H]4CC(F)(F)C5)ccn3)C2)cnn1CCO` [P-0107, 4-chloro-5-((R)-3-((4-((1R,5S)-3,3-difluoro-8-azabicyclo[3.2.1]octan-8-yl)pyridin-2-yl)oxy)pyrrolidin-1-yl)-2-(2-hydroxyethyl)pyridazin-3(2H)-one], for which the IC50 in experiment [1] fell in the range of 0.001 to 10 µM; at human CD73, 10 to 100 µM.

With `Cc1nn(CC2CCO2)c(C)c1-c1ccnc(O[C@@H]2CCN(c3cn[nH]c(=O)c3Cl)C2)c1` (stereo partly drawn) [P-0086, 4-chloro-5-((3R)-3-((4-(3,5-dimethyl-1-(oxetan-2-ylmethyl)-1H-pyrazol-4-yl)pyridin-2-yl)oxy)pyrrolidin-1-yl)pyridazin-3(2H)-one], the IC50 (in experiment [1]; at human CD73) was 0.001 to 10 µM in each case.

As for `Cc1nn(C)c(C)c1-c1cc(F)nc(O[C@H]2CN(c3cn[nH]c(=O)c3Cl)C[C@@H]2F)c1` [P-0191, 4-chloro-5-((3S,4S)-3-fluoro-4-((6-fluoro-4-(1,3,5-trimethyl-1H-pyrazol-4-yl)pyridin-2-yl)oxy)pyrrolidin-1-yl)pyridazin-3(2H)-one], the IC50 (in experiment [1]; at human CD73) was 0.001 to 10 µM in each case.

Consider `O=c1[nH]ncc(N2CC[C@@H](Oc3cc(N4CCC5(CC4)CC(F)(F)C5)ccn3)C2)c1Cl` [P-0024, (R)-4-chloro-5-(3-((4-(2,2-difluoro-7-azaspiro[3.5]nonan-7-yl)pyridin-2-yl)oxy)pyrrolidin-1-yl)pyridazin-3(2H)-one], for which the IC50 (in experiment [1]; at human CD73) was 0.001 to 10 µM in each case.

The record behind these values is patent publication US12202818B2, “Compounds and methods for CD73 modulation and indications therefor” (Opna Bio SA, priority 2020, dated 2025).
